Here are results for two compounds from patent publication US8637664B2, “Alkyl 4- [4- (5-oxo-2,3,5, 11a-tetrahydo-5H-pyrrolo [2, 1-c] [1,4] benzodiazepine-8-yloxy)-butyrylamino]-1H-pyrrole-2-carboxylate derivatives and related compounds for the treatment of a proliferative disease” (Spirogen SARL, priority 2005, dated 2014).

The test system of one test is calf thymus DNA (CT-DNA). The test can be described thus: DNA thermal denaturation (melting) studies. Conditions: CT-DNA 100 μM DNAp, compound 20 μM, 37 °C; for Induced ΔTm after incubation 0 hours: pH 7.00, 0 hours; for Induced ΔTm after incubation 4 hours: pH 7.00, 4 hours; for Induced ΔTm after incubation 18 hours: pH 7.00, 18 hours. The test is classed as binding. A digest of the protocol: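 CT-DNA at 100 μM (50 μM bp) with test compound at 20 μM in pH 7.00 10 mM sodium phosphate/1 mM EDTA, preincubated at 37.0 °C for 0–18 h (up to 72 h for some compounds). Absorbance at 260 nm, heated 1 °C/min over 45–98 °C; Tm from melting-profile midpoint, ΔTm versus free DNA, MeOH-corrected, mean±SD of ≥3.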

Test [1] relates to K562 human chronic myeloid leukaemia cells. Kind of test: In vitro cytotoxicity, MTT assay. The test is classed as cell-based. Conditions: K562, 1 hour drug exposure, MTT after 4 days. The protocol:
K562 human chronic myeloid leukaemia cells were maintained in RPM1 1640 medium supplemented with 10% fetal calf serum and 2 mM glutamine at 37° C. in a humidified atmosphere containing 5% CO2 and were incubated with a specified dose of drug for 1 hour at 37° C. in the dark. The incubation was terminated by centrifugation (5 min, 300 g) and the cells were washed once with drug-free medium. Following the appropriate drug treatment, the cells were transferred to 96-well microtiter plates (10^4 cells per well, 8 wells per sample). Plates were then kept in the dark at 37° C. in a humidified atmosphere containing 5% CO2. The assay is based on the ability of viable cells to reduce a yellow soluble tetrazolium salt, 3-(4,5-dimethylthiazol-2-yl)-2,5-diphenyl-2H-tetrazolium bromide (MTT, Aldrich-Sigma), to an insoluble purple formazan precipitate. Following incubation of the plates for 4 days (to allow control cells to increase in number by approximately 10 fold), 20 μL of MTT solution (5 mg/mL in phosphate-buffered saline) was added to each well and the plates further incubated for 5 hours. The plates were then centrifuged for 5 minutes at 300 g and the bulk of the medium pipetted from the cell pellet leaving 10-20 μL per well. DMSO (200 μL) was added to each well and the samples agitated to ensure complete mixing. The optical density was then read at a wavelength of 550 nm on a Titertek Multiscan ELISA plate reader, and a dose-response curve was constructed.

Regarding `COC(=O)c1cc(NC(=O)c2cc(NC(=O)CCCOc3cc4c(cc3OC)C(=O)N3CCC[C@H]3C=N4)cn2C)cn1C` [Compound 23, (11aS) Methyl 4-({4-[4-(7-Methoxy-6-oxo-2,3,5,11a-tetrahydro-5H-pyrrolo[2,1-c][1,4]benzodiazepine-8-yloxy)-butyrylamino]-1-methyl-1H-pyrrole-2-carbonyl}-amino)-1-methyl-1H-pyrrole-2-carboxylate], in the test with calf thymus DNA (CT-DNA), the “Induced ΔTm after incubation 0 hours” value worked out at 13.9 °C, the “Induced ΔTm after incubation 4 hours” value came out at 15.0 °C and the “Induced ΔTm after incubation 18 hours” value amounted to 15.6 °C. The compound further gave an IC50 in test [1] of 3.6 nM.
In the case of `COC(=O)c1cc(NC(=O)c2cc(NC(=O)c3cc(NC(=O)CCOc4cc5c(cc4OC)C(=O)N4CCC[C@H]4C=N5)cn3C)cn2C)cn1C` [Compound C11, (11aS) Methyl 4-{[4-({4-[4-(7-Methoxy-5-oxo-2,3,5,11a-tetrahydro-5H-pyrrolo[2,1-c][1,4]benzodiazepine-8-yloxy)-propionylamino]-1-methyl-1H-pyrrole-2-carbonyl]-amino)-1-methyl-1H-pyrrole-2-carbonyl]-amino}-1-methyl-1H-pyrrole-2-carboxylate], in the test with calf thymus DNA (CT-DNA), the “Induced ΔTm after incubation 0 hours” value was determined as 7.9 °C, the “Induced ΔTm after incubation 4 hours” value stood at 8.4 °C and the “Induced ΔTm after incubation 18 hours” value was determined as 9.6 °C. The compound also had an IC50 in test [1] of 346 nM.
